Experimental data reported in US20240287138A1, “CYCLIC PEPTIDES FOR INHIBITING TNF RECEPTOR 1 ACTIVITY” (Merck Sharp & Dohme LLC, priority 2023, published 2024).
Numbered stars: 1 amine (or outer) side, 2 acyl side, 3 side chain; on linkers, the order of the positions; unused ones are H or OH. Square brackets hold non-standard residues; d marks the D form. Peptide text beside a SMILES is read from it. Trp(βS-Me,7-OMe) = COc1cccc2c([C@H](C)[C@H](N)C(=O)O)c[nH]c12; Trp(7-CN) = N#Cc1cccc2c(C[C@H](N)C(=O)O)c[nH]c12; Trp(7-Cl) = N[C@@H](Cc1c[nH]c2c(Cl)cccc12)C(=O)O; Phe(3-COOH) = N[C@@H](Cc1cccc(C(=O)O)c1)C(=O)O; Phe(4-CONH2) = NC(=O)c1ccc(C[C@H](N)C(=O)O)cc1; Phe(4-COOH) = N[C@@H](Cc1ccc(C(=O)O)cc1)C(=O)O; X30 = O=C([C@@H](N[*:1])[C@H](O)c1ccncc1)[*:2]; 4Pal(3S-Me) = C[C@@H](c1ccncc1)[C@H](N)C(=O)O; dPro(trans-4-F) = O=C(O)[C@H]1C[C@H](F)CN1; Pip(5R-OH) = O=C(O)[C@@H]1CC[C@@H](O)CN1; X1 = O=C([C@@H]1CC[C@H](N[*:1])C1)[*:2]; 4Pal = N[C@@H](Cc1ccncc1)C(=O)O; NMeE = CN[C@@H](CCC(=O)O)C(=O)O; dHyp = O=C(O)[C@H]1C[C@H](O)CN1; Cit = NC(=O)NCCC[C@H](N)C(=O)O; Ahp(2) = CCCCC[C@H](N)C(=O)O; αMeS = C[C@](N)(CO)C(=O)O; Nle = CCCC[C@H](N)C(=O)O; Sar = CNCC(=O)O

Key:
[1] = biological target: T1, human TNFR1 extracellular domain (ECD) protein (Homo sapiens, UniProt P19438); assay: SPR binding affinity to captured human TNFR1 ECD
T1 construct: HRV 3C protease cleavage site (C); 6His (C, cleaved yes); made in house; host or cells: Sf21 insect cells (baculovirus), secreted
T1 sequence (P19438 30-211): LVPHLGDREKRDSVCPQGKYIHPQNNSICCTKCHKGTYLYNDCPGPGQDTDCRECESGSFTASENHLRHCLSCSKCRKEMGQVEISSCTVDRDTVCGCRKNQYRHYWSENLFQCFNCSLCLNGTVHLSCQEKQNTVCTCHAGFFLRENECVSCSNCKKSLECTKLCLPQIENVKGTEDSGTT
How it was run: (§1)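 Peptides are tested against captured biotin-tagged human TNFR1 ECD, with parallel TNFR2 ECD binding to check selectivity. Buffer: 10 mM HEPES pH 7.4, 150 mM NaCl, 3 mM EDTA, 0.05% P20, 2% DMSO.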

human TNFR2 ECD protein = biological target: T2, human TNFR2 ECD protein (Homo sapiens, UniProt P20333); assay: SPR off-target binding (selectivity) to human TNFR2 ECD
T2 construct: HRV 3C protease cleavage site (C); 6His (C, cleaved yes); made in house; host or cells: Sf21 insect cells (baculovirus), secreted
T2 sequence (P20333 23-257): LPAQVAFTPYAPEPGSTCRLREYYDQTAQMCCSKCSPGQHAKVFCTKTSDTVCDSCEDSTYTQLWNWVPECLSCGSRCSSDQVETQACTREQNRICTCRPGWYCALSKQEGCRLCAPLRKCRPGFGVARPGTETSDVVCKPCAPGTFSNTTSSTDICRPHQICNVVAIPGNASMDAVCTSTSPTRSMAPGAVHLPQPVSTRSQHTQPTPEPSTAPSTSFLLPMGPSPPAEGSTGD
How it was run: as §1

[2] = biological target: T3, human soluble TNFR1 (sTNFR1) (Homo sapiens, UniProt P19438); assay: Human sTNFR1-peptide displacement assay (LanthaScreen Eu TR-FRET binding assay)
T3 construct: made in house; host or cells: Sf21 (baculovirus)
T3 sequence (P19438 with tags, fused parts or gaps): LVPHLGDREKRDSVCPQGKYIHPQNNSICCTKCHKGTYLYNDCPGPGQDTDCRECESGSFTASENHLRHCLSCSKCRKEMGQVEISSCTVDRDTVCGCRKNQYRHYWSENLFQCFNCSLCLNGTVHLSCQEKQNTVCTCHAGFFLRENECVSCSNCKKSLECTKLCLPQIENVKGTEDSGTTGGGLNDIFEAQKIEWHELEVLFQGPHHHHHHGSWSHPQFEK
How it was run: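 Readout is the 665/615 nm TR-FRET ratio (Eu anti-His donor, streptavidin-Alexa647 acceptor), normalized to DMSO and saturating displacer, fit by Morrison-based five-parameter logistic for Kd^app. His-tagged sTNFR1 (1-211) prebound to 100 nM biotinylated peptide SEQ ID NO.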

SMILES | Kd [1] [nM] | Kd (human TNFR2 ECD protein) [nM] | Kd [2] [nM]
CCCCC[C@@H]1NC(=O)[C@@H]2CC[C@@H](C2)NC(=O)[C@H]([C@@H](C)c2c[nH]c3c(OC)cccc23)NC(=O)CN(C)C(=O)[C@H](Cc2ccc(C(N)=O)cc2)NC(=O)[C@H](Cc2ccc(C(N)=O)cc2)NC(=O)[C@](C)(CO)NC(=O)[C@H](Cc2c[nH]c3c(C#N)cccc23)NC(=O)[C@H](Cc2ccc(C(=O)O)cc2)NC(=O)[C@H](CC(N)=O)NC(=O)[C@H]2C[C@H](O)CN2C(=O)[C@H](Cc2c[nH]c3ccccc23)NC(=O)[C@H](CO)NC(=O)[C@H]([C@H](O)c2ccncc2)NC1=O [SEQ ID NO. 16] (cyclo([Ahp(2)][X30]SW[dHyp]N[Phe(4-COOH)][Trp(7-CN)][αMeS][Phe(4-CONH2)][Phe(4-CONH2)][Sar][Trp(βS-Me,7-OMe)][X1])) | 0.09 | > 1000 | 0.11
CCCC[C@@H]1NC(=O)[C@@H]2CC[C@@H](C2)NC(=O)[C@H]([C@@H](C)c2c[nH]c3c(OC)cccc23)NC(=O)CN(C)C(=O)[C@H](Cc2cccc(C(=O)O)c2)NC(=O)[C@H](Cc2ccc(C(N)=O)cc2)NC(=O)[C@](C)(CO)NC(=O)[C@H](Cc2c[nH]c3c(Cl)cccc23)NC(=O)[C@H](Cc2ccc(C(=O)O)cc2)NC(=O)[C@H](CC(N)=O)NC(=O)[C@H]2C[C@H](O)CN2C(=O)[C@H](Cc2c[nH]c3ccccc23)NC(=O)[C@@H]2CC[C@@H](O)CN2C(=O)[C@H](Cc2ccncc2)NC1=O [SEQ ID NO. 17] (cyclo([4Pal][Pip(5R-OH)]W[dHyp]N[Phe(4-COOH)][Trp(7-Cl)][αMeS][Phe(4-CONH2)][Phe(3-COOH)][Sar][Trp(βS-Me,7-OMe)][X1][Nle])) | 0.04 | > 1000 | 0.16
CCCC[C@@H]1NC(=O)[C@@H]2CC[C@@H](C2)NC(=O)[C@H]([C@@H](C)c2c[nH]c3c(OC)cccc23)NC(=O)CN(C)C(=O)[C@H](Cc2ccc(C(N)=O)cc2)NC(=O)[C@H](Cc2ccc(C(N)=O)cc2)NC(=O)[C@](C)(CO)NC(=O)[C@H](Cc2c[nH]c3c(C#N)cccc23)NC(=O)[C@H](Cc2ccc(C(=O)O)cc2)NC(=O)[C@H](CC(N)=O)NC(=O)[C@H](CCC(=O)O)N(C)C(=O)[C@H](Cc2c[nH]c3ccccc23)NC(=O)[C@@H]2CC[C@@H](O)CN2C(=O)[C@H](Cc2ccncc2)NC1=O [SEQ ID NO. 19] (cyclo([4Pal][Pip(5R-OH)]W[NMeE]N[Phe(4-COOH)][Trp(7-CN)][αMeS][Phe(4-CONH2)][Phe(4-CONH2)][Sar][Trp(βS-Me,7-OMe)][X1][Nle])) | 0.07 | > 1000 | 0.08
CCCC[C@@H]1NC(=O)[C@@H]2CC[C@@H](C2)NC(=O)[C@H]([C@@H](C)c2c[nH]c3c(OC)cccc23)NC(=O)CN(C)C(=O)[C@H](Cc2ccc(C(=O)O)cc2)NC(=O)[C@H](Cc2ccc(C(N)=O)cc2)NC(=O)[C@](C)(CO)NC(=O)[C@H](Cc2c[nH]c3c(Cl)cccc23)NC(=O)[C@H](Cc2ccncc2)NC(=O)[C@H](CC(N)=O)NC(=O)[C@H]2C[C@H](F)CN2C(=O)[C@H](Cc2c[nH]c3ccccc23)NC(=O)[C@@H]2CC[C@@H](O)CN2C(=O)[C@H](Cc2ccncc2)NC1=O [SEQ ID NO. 101] (cyclo([4Pal][Trp(7-Cl)][αMeS][Phe(4-CONH2)][Phe(4-COOH)][Sar][Trp(βS-Me,7-OMe)][X1][Nle][4Pal][Pip(5R-OH)]W[dPro(trans-4-F)]N)) | 0.05 | > 1000 | 0.05
CCCCC[C@@H]1NC(=O)[C@@H]2CC[C@@H](C2)NC(=O)[C@H]([C@@H](C)c2c[nH]c3c(OC)cccc23)NC(=O)CN(C)C(=O)[C@H](Cc2ccc(C(N)=O)cc2)NC(=O)[C@H](Cc2ccc(C(N)=O)cc2)NC(=O)[C@](C)(CO)NC(=O)[C@H](Cc2c[nH]c3c(C#N)cccc23)NC(=O)[C@H](Cc2ccc(C(=O)O)cc2)NC(=O)[C@H](CC(N)=O)NC(=O)[C@H]2C[C@H](O)CN2C(=O)[C@H](Cc2c[nH]c3ccccc23)NC(=O)[C@H](CCCNC(N)=O)NC(=O)[C@H]([C@@H](C)c2ccncc2)NC1=O [SEQ ID NO. 110] (cyclo([Ahp(2)][4Pal(3S-Me)][Cit]W[dHyp]N[Phe(4-COOH)][Trp(7-CN)][αMeS][Phe(4-CONH2)][Phe(4-CONH2)][Sar][Trp(βS-Me,7-OMe)][X1])) | 0.14 |  | 0.14
